According to patent US7223733B2, “Modulation of TRIP-Br function and method of treating proliferative disorders” (National University of Singapore, priority 2004, dated 2007):
Where no end group is shown, it is not given here. [invdT] = inverted (3'-3') thymidine

Columns and labels:
CNE2 tumor = test: Chick embryo chorioallantoic membrane (CAM) tumor xenograft model; type: in vivo; settings: 50 μM topically, daily; p<0.05
Excerpt: Cell lines. Human nasopharyngeal cancer cell line CNE2 and human melanoma cell line Mewo were used for tumor inoculation.
Chicken embryo CAM preparation. To apply cells onto the CAM of 10-day old chick embryos, a 2-cm diameter wide window was opened in the flat pole of the eggshell with an electric drill equipped with a 0.3-mm thick×22-mm diameter Carborundum disc. The shell window was removed with forceps. The inner shell membrane was carefully punctured with a fine sterile forcep and removed to expose the underlying CAM. A small portion of the CAM was then gently traumatized by laying a strip of lens tissue (1-cm wide) on the surface of the CAM and then removing it immediately.
Inoculation, closure & incubation. The inoculum (1×10^6 cells/egg for CNE2 cell line and 3×10^6 cells/egg for Mewo cell line in 50 μl of blank medium) was applied onto the small patch of traumatized CAM. Following inoculation, the window was covered with a 35 mm tissue culture dish and sealed with scotch tape. The embryos were returned to the incubator in an upright position and allowed to incubate for seven additional days, with daily monitoring.
Peptide treatment & assessment of growth inhibitory effects. The treatment was initiated two days after tumor inoculation.
The eggs were randomized into 4 treatment groups, with each group comprising at least 4 biological replicates. […]

WI-38 cells = test: BrdU incorporation, serum-induced S phase entry of WI-38 cells; type: cell-based, human; settings: WI-38, 0.1 μM, 20 h; compared to unstimulated cells
Procedure: DNA enzyme transfection. WI-38 cells were rendered quiescent by cultivation in serum-free medium for 72 h before being transfected with DNA enzyme (0.1 μM) using Superfect as reported previously (Santiago, F. S., et al. Nat Med 5, 1264-1269 (1999)) in accordance to manufacturer's recommendations (Qiagen).
Cell proliferation assays. For the BrdU incorporation assays, growth-quiescent WI-38 cells in 96-well dishes were transfected with DNA enzyme and/or 100 ng of pCMV/E2F1, pCMV/DP1, pRSV/Cyclin E, or pCMV/Cdk2 and then exposed to Bromodeoxyuridine (BrdU, 100 μM) in the presence or absence of 10% FBS for 20 h. Bromodeoxyuridine (BrdU) incorporation was monitored with a calorimetric ELISA assay using a cell proliferation kit according to manufacturer's recommendations (Boehringer Mannheim). For manual cell count, growth-quiescent WI-38 cells in 24-well dishes were transfected with DNA enzyme and then exposed to 10% FBS for 72 h. The cells were rinsed with PBS, pH 7.4, and trypsinized, and 10 μl of cell suspension was taken from each sample and mixed with equal volume of trypan blue stain (Sigma, 0.4% w/v in 1×PBS). The number of unstained cells was enumerated manually using a hemocytometer. For colony formation assays, growth-quiescent WI-38 cells in 12-well dishes were transfected with DNA enzyme and then exposed to 10% FBS for 120 h. Cells were stained in situ with crystal violet (0.75% w/v hexamethyl-p-rosaniline chloride [SIGMA], 50% ethanol, 1.75% w/v paraformaldehyde, 0.25% w/v NaCl) for 10 min, and then rinsed thoroughly with deionized water to remove excess stains.
FIG. 13: (A) E-Br1 or E-Br2 suppresses serum-inducible S phase entry. Sub-confluent WI-38 cells were serum-starved for 72 h. Following DNA enzyme transfection, the cultures were re-stimulated with serum and allowed to proliferate in BrdU labeling medium. After 20 h, cells were assayed for BrdU incorporation with a colorimetric ELISA assay. Values represent the average of at least two independent experiments. […] Sub-confluent WI-38 cells were serum-starved for 72 h. […]

CCNE gene = test: Semi-quantitative RT-PCR of CCNE in serum-stimulated WI-38 cells; type: cell-based, human; settings: WI-38, serum stimulation
Procedure: Semi-quantitative RT-PCR. Following various treatments, WI-38 cells in 6-well culture dish were subjected to total RNA extraction using the TRIZOL® Reagent (Life Technologies). Total RNA (4 μg) was reversed transcribed using oligo-dT and M-MLV reverse transcriptase in a total reaction volume of 20 μl. Polymerase Chain Reactions (PCR) were carried out on 3 μl cDNA sample in the presence of […] deoxyribonucleotide triphosphates (dNTPs) and 40 μM of specific primer pairs in a total reaction volume of 50 μl. The cycling profile for PCR was as follow: 30 cycles of denaturation (94° C., 30 sec), annealing (51° C., 30 sec) and extension (72° C., 2 min), with a 2-minute initial denaturation step at 94° C. and a 10-minute polishing step at 72° C. at the end. Sequences of gene-specific primers are available upon request. Post-PCR samples were analyzed by agarose gel electrophoresis.
FIG. 14: (A) E-Br1 or E-Br2 attenuates mitogen-stimulated CCNE gene induction. Sub-confluent WI-38 cells were serum-starved for 72 h. Following DNA enzyme transfection, the cultures were re-stimulated with serum and allowed to proliferate. After 20 h, cells were harvested and total RNA extracted for semi-quantitative RT-PCR to assess CCNE expression. β-actin was included as an internal control. PCR products were resolved by agarose gel electrophoresis and ethidium bromide-stained DNA bands were visualized under UV. […]

ERQIKIWFQNRRMKWKKTGFLTDLTLDDILFADID (ERQIKIWFQNRRMKWKKTGFLTDLTLDDILFADID-NH2) [*Br2]
growth of CNE2 tumor (tumour weight) (CNE2 tumor): significantly inhibited the growth of CNE2 tumor

ERQIKIWFQNRRMKWKKATGCLLDDGLEGLFEDID (ERQIKIWFQNRRMKWKKATGCLLDDGLEGLFEDID-NH2) [*Br1]
growth of CNE2 tumor (tumour weight) (CNE2 tumor): significantly inhibited the growth of CNE2 tumor

5′-T TACCCAACAGGCTAGCTACAACGAATATCACA-3′ (DNA TTACCCAACAGGCTAGCTACAACGAATATCACA; DNA, 3' [invdT], backbone not given here) [E-Br2]
BrdU incorporation on serum stimulation (WI-38 cells): significantly inhibited
serum-induced CCNE gene activation (CCNE gene): suppressed

5′-T TGCTCAGCAGGCTAGCTACAACGACTTGCTCA-3′ (DNA TTGCTCAGCAGGCTAGCTACAACGACTTGCTCA; DNA, 3' [invdT], backbone not given here) [E-Br1]
BrdU incorporation on serum stimulation (WI-38 cells): significantly inhibited
serum-induced CCNE gene activation (CCNE gene): suppressed
